Results: ChEMBL document CHEMBL5360614, “Quinoline Thiourea-Based Zinc Ionophores with Antibacterial Activity” (J Med Chem, 2023)
Values after ≈ are worked out from the molar mass of the structure shown. Active and inactive are the calls of the source. No cut-off for these calls is given here.

Experiments:
Lipid bilayer [1] = assay: (§1) Induction of ionophore activity across EYPC:CHOL (8:2) large unilamellar vesicles assessed as transmembrane anion transport by measuring decrease in fluorescence intensity for HPTS dye at 10 uM preincubated for 3 mins followed by ZnCl2 addition and mesured after 7.5 mins by HPTS dye based fluorescence spectrophotometric analysis; settings: filed as opener, time 10.5 min
Staphylococcus aureus [2] = assay: Bactericidal activity against Staphylococcus aureus MTCC-96 at 2 times MIC incubated for 2 hrs in presence of ZnCl2 by time kill assay; type: functional, organism-based
A549 = assay: Cytotoxicity against human A549 cells assessed as reduction in cell viability at 1 to 100 uM incubated for 44 hrs by MTT assay; type: toxicity, cell-based; settings: a549, 44 h, dose 1-100 µM
Staphylococcus aureus [3] = assay: Antibacterial activity against Staphylococcus aureus MTCC-96 assessed as reduction in bacterial growth incubated for 14 to 16 hrs in presence of 400 uM ZnCl2 by microbroth dilution method; type: functional; settings: time 14-16 hrs
Lipid bilayer [4] = assay: as §1, with “dye” for “dye at 10 uM”, “ZnBr2” for “ZnCl2”; settings: filed as opener; time 10.5 min
Lipid bilayer [5] = assay: as §1, with “cation” for “anion”, “dye” for “dye at 10 uM”, “CuCl2” for “ZnCl2”; settings: filed as opener; time 10.5 min
Lipid bilayer [6] = assay: as §1, with “dye” for “dye at 10 uM”, “Zn(NO3)2” for “ZnCl2”; settings: filed as opener; time 10.5 min
Lipid bilayer [7] = assay: as §1, with “dye” for “dye at 10 uM”, “ZnSO4” for “ZnCl2”; settings: filed as opener; time 10.5 min
Staphylococcus aureus [8] = assay: Bactericidal activity against Staphylococcus aureus MTCC-96 at 2 times MIC incubated for 2 hrs by time kill assay; type: functional, organism-based
Lipid bilayer [9] = assay: as §1, with “cation” for “anion”, “dye” for “dye at 10 uM”, “CsCl” for “ZnCl2”; settings: time 10.5 min
Staphylococcus aureus [10] = assay: Antibacterial activity against Staphylococcus aureus MTCC-96 assessed as resistance development by measuring fold increase in MIC and measured after 30 days by microbroth dilution method; type: functional; settings: time 30 day
Staphylococcus aureus [11] = assay: Antibacterial activity against Staphylococcus aureus MTCC-96 assessed as resistance development by measuring fold increase in MIC and measured after 30 days in presence of ZnCl2 by microbroth dilution method; type: functional, organism-based; settings: time 30.0 day
MCF-10A = assay: Cytotoxicity against human MCF-10A cells assessed as reduction in cell viability at 1 to 100 uM incubated for 44 hrs by MTT assay; type: toxicity, cell-based; settings: dose 1-100 µM
Staphylococcus aureus [12] = assay: Antibacterial activity against Staphylococcus aureus MTCC-96 assessed as reduction in bacterial growth incubated for 14 to 16 hrs in presence of 100 to 400 uM ZnBr2 by microbroth dilution method; type: functional, organism-based; settings: time 14-16 hrs
Staphylococcus aureus [13] = assay: Antibacterial activity against Staphylococcus aureus MTCC-96 assessed as fold reduction in bacterial growth incubated for 14 to 16 hrs in presence of 400 uM ZnCl2 by microbroth dilution method; type: functional; settings: time 14-16 hrs
Lipid bilayer [14] = assay: as §1, with “cation” for “anion”, “dye” for “dye at 10 uM”, “MgCl2” for “ZnCl2”; settings: time 10.5 min
Lipid bilayer [15] = assay: as §1, with “cation” for “anion”, “dye” for “dye at 10 uM”, “RbCl” for “ZnCl2”; settings: time 10.5 min
Staphylococcus aureus [16] = assay: Antibacterial activity against Staphylococcus aureus MTCC-96 assessed as reduction in bacterial growth incubated for 14 to 16 hrs in presence of 100 to 400 uM CuCl2 by microbroth dilution method; type: functional, organism-based; settings: time 14-16 hrs
Staphylococcus aureus [17] = assay: Disruption of membrane integrity in Staphylococcus aureus MTCC-96 assessed as increase in fluorescence intensity at 4 to 8 uM by PI staining based fluorescence analysis; type: functional, organism-based; settings: dose 4-8 µM
Cell membrane = assay: Induction of cell membrane depolarization in Staphylococcus aureus MTCC-96 assessed as change in fluorescence intensity at 3.13 uM by DiSC3-5 dye based fluorescence method; type: subcellular
Staphylococcus aureus [18] = assay: Antibacterial activity against gentamicin-and methicillin-resistant Staphylococcus aureus ATCC 33592 assessed as reduction in bacterial growth incubated for 14 to 16 hrs by microbroth dilution method; type: functional; settings: time 14-16 hrs
Staphylococcus aureus [19] = assay: Antibacterial activity against Staphylococcus aureus MTCC-96 assessed as reduction in bacterial growth incubated for 14 to 16 hrs in presence of EGTA by microbroth dilution method; type: functional; settings: time 14-16 hrs
MDA-MB-231 = assay: Cytotoxicity against human MDA-MB-231 cells assessed as reduction in cell viability at 1 to 100 uM incubated for 44 hrs by MTT assay; type: toxicity, cell-based; settings: mda-mb-231, 44 h, dose 1-100 µM
HCT-116 = assay: Cytotoxicity against human HCT-116 cells assessed as reduction in cell viability at 1 to 100 uM incubated for 44 hrs by MTT assay; type: toxicity, cell-based; settings: hct-116, 44 h, dose 1-100 µM
Escherichia coli = assay: Antibacterial activity against Escherichia coli MTCC 1687 assessed as reduction in bacterial growth incubated for 14 to 16 hrs by microbroth dilution method; type: functional; settings: time 14-16 hrs
MCF7 = assay: Cytotoxicity against human MCF7 cells assessed as reduction in cell viability at 1 to 100 uM incubated for 44 hrs by MTT assay; type: toxicity, cell-based; settings: mcf7, 44 h, dose 1-100 µM
Staphylococcus aureus [20] = assay: Antibacterial activity against Staphylococcus aureus MTCC-96 assessed as reduction in bacterial growth incubated for 14 to 16 hrs in presence of 100 to 400 uM ZnSO4 by microbroth dilution method; type: functional, organism-based; settings: time 14-16 hrs
Lipid bilayer [21] = assay: as §1, with “cation” for “anion”, “dye” for “dye at 10 uM”, “CaCl2” for “ZnCl2”; settings: time 10.5 min
Staphylococcus aureus [22] = assay: Antibacterial activity against Staphylococcus aureus MTCC-96 assessed as reduction in bacterial growth incubated for 14 to 16 hrs in presence of 100 to 400 uM Zn(NO3)2 by microbroth dilution method; type: functional, organism-based; settings: time 14-16 hrs
Staphylococcus aureus [23] = assay: Antibacterial activity against Staphylococcus aureus MTCC-96 assessed as reduction in bacterial growth incubated for 14 to 16 hrs by microbroth dilution method; type: functional; settings: time 14-16 hrs
Lipid bilayer [24] = assay: as §1, with “cation” for “anion”, “dye” for “dye at 10 uM”, “LiCl” for “ZnCl2”; settings: time 10.5 min
Lipid bilayer [25] = assay: as §1, with “cation” for “anion”, “dye” for “dye at 10 uM”, “MnCl2” for “ZnCl2”; settings: time 10.5 min
Lipid bilayer [26] = assay: as §1, with “cation” for “anion”, “dye” for “dye at 10 uM”, “KCl” for “ZnCl2”; settings: time 10.5 min
Lipid bilayer [27] = assay: as §1, with “Zn2+ ion” for “anion”; settings: filed as opener, time 10.5 min
Lipid bilayer [28] = assay: as §1, with “cation” for “anion”, “dye” for “dye at 10 uM”, “NaCl” for “ZnCl2”; settings: time 10.5 min
Erythrocyte = assay: Hemolytic activity in human Red blood cells assessed as hemolysis rate at 1.6 to 50 uM incubated for 1 to 24 hrs in presence of ZnCl2 by absorbance based analysis; type: toxicity, cell-based; settings: dose lower 1.6 µM, time lower 1 hrs, dose upper 50 µM, time upper 24 hrs
Staphylococcus aureus [29] = assay: Disruption of membrane integrity in Staphylococcus aureus MTCC-96 assessed as change in cocci shape in presence of Zn2+ ion by FE-SEM analysis; type: functional, organism-based
Staphylococcus aureus [30] = assay: Antibacterial activity against Staphylococcus aureus MTCC-96 assessed as reduction in bacterial growth incubated for 14 to 16 hrs in presence of 100 to 400 uM CaCl2 by microbroth dilution method; type: functional, organism-based; settings: time 14-16 hrs
Staphylococcus aureus [31] = assay: Antibacterial activity against Staphylococcus aureus MTCC-96 assessed as reduction in bacterial growth incubated for 14 to 16 hrs in presence of 100 to 400 uM CsCl by microbroth dilution method; type: functional, organism-based; settings: time 14-16 hrs
Staphylococcus aureus [32] = assay: Bactericidal activity against Staphylococcus aureus MTCC-96 assessed as reduction in bacterial colony formation at 2 times MIC incubated upto 8 hrs in presence of ZnCl2 by agar-plate method; type: functional, organism-based
Staphylococcus aureus [33] = assay: Antibacterial activity against Staphylococcus aureus MTCC-96 assessed as reduction in bacterial growth incubated for 14 to 16 hrs in presence of 100 to 400 uM MnCl2 by microbroth dilution method; type: functional, organism-based; settings: time 14-16 hrs
Staphylococcus aureus [34] = assay: Antibacterial activity against Staphylococcus aureus MTCC-96 assessed as reduction in bacterial growth incubated for 14 to 16 hrs in presence of 100 to 400 uM MgCl2 by microbroth dilution method; type: functional, organism-based; settings: time 14-16 hrs
Staphylococcus aureus [35] = assay: Potency index, ratio of compound MIC to compound MIC in presence of 1 uM 1-(2-(1H-benzo[d]imidazol-1-yl)quinolin-8-yl)-3-(3,5-bis(trifluoromethyl)phenyl)thiourea and 200 uM ZnCl2 for antibacterial activity against gentamicin-and methicillin-resistant Staphylococcus aureus ATCC 33592; type: functional
Staphylococcus aureus [36] = assay: (§2) Antibacterial activity against gentamicin-and methicillin-resistant Staphylococcus aureus ATCC 33592 assessed as reduction in bacterial growth incubated for 14 to 16 hrs in presence of 200 uM ZnCl2 by microbroth dilution method; type: functional; settings: time 14-16 hrs
Staphylococcus aureus [37] = assay: as §2, with “1” for “200”, “1-(2-(1H-benzo[d]imidazol-1-yl)quinolin-8-yl)-3-(3,5-bis(trifluoromethyl)phenyl)thiourea” for “ZnCl2”; type: functional; settings: time 14-16 hrs
Staphylococcus aureus [38] = assay: as §2, with “of 1 uM 1-(2-(1H-benzo[d]imidazol-1-yl)quinolin-8-yl)-3-(3,5-bis(trifluoromethyl)phenyl)thiourea and” for “of”; type: functional; settings: time 14-16 hrs
Staphylococcus aureus [39] = assay: as §2, with “1 uM 1-(2-(1H-benzo[d]imidazol-1-yl)quinolin-8-yl)-3-(3,5-bis(trifluoromethyl)phenyl)thiourea and 100” for “200”; type: functional; settings: time 14-16 hrs

FC(F)(F)c1cc(NC(=S)Nc2cccc3cccnc23)cc(C(F)(F)F)c1
Activity (Lipid bilayer [1]): Active | Activity (Staphylococcus aureus [2]): Active | Activity (A549): Non-Toxic | MIC (Staphylococcus aureus [3]): 0.47 µM | Activity (Lipid bilayer [4]): Active | Activity (Lipid bilayer [5]): Active | Activity (Lipid bilayer [6]): Active | Activity (Lipid bilayer [7]): Active | Activity (Staphylococcus aureus [8]): Active | Activity (Lipid bilayer [9]): inactive | fold change (FC) (Staphylococcus aureus [10]): 16 | Activity (Staphylococcus aureus [11]): Active | Activity (MCF-10A): Non-Toxic | Activity (Staphylococcus aureus [12]): Active | fold change (FC) (Staphylococcus aureus [13]): 6.65 | Activity (Lipid bilayer [14]): inactive | Activity (Lipid bilayer [15]): inactive | Activity (Staphylococcus aureus [16]): inactive | Activity (Staphylococcus aureus [17]): inactive | Activity (Cell membrane): inactive | MIC (Staphylococcus aureus [18]): 3.13 µM (≈ 1.3 µg/mL) | MIC (Staphylococcus aureus [19]): 6.25 µM | Activity (MDA-MB-231): Non-Toxic | Activity (HCT-116): Non-Toxic | MIC (Escherichia coli): > 50 µM | Activity (MCF7): Non-Toxic | Activity (Staphylococcus aureus [20]): Active | Activity (Lipid bilayer [21]): inactive | Activity (Staphylococcus aureus [22]): Active | MIC (Staphylococcus aureus [23]): 3.13 µM (≈ 1.3 µg/mL) | Activity (Lipid bilayer [24]): inactive | Activity (Lipid bilayer [25]): inactive | Activity (Lipid bilayer [26]): inactive | Activity (Lipid bilayer [27]): Active | Activity (Lipid bilayer [28]): inactive | Activity (Erythrocyte): Non-Toxic | Activity (Staphylococcus aureus [29]): inactive | Activity (Staphylococcus aureus [30]): inactive | Activity (Staphylococcus aureus [31]): inactive | Activity (Staphylococcus aureus [32]): Active | Activity (Staphylococcus aureus [33]): inactive | Activity (Staphylococcus aureus [34]): inactive

CC1(C)S[C@@H]2[C@H](NC(=O)[C@H](N)c3ccc(O)cc3)C(=O)N2[C@H]1C(=O)O [AMOXICILLIN]
Ratio (Staphylococcus aureus [35]): 341 | MIC (Staphylococcus aureus [36]): 17 µM | MIC (Staphylococcus aureus [37]): 17 µM | MIC (Staphylococcus aureus [18]): 17 µM (≈ 6.21 µg/mL) | MIC (Staphylococcus aureus [38]): 0.05 µM | MIC (Staphylococcus aureus [39]): 4.09 µM

FC(F)(F)c1cc(NC(=S)Nc2cccc3ccc(-n4cccc4)nc23)cc(C(F)(F)F)c1
MIC (Staphylococcus aureus [18]): > 50 µM | MIC (Escherichia coli): > 50 µM | MIC (Staphylococcus aureus [23]): > 50 µM

CN(C)[C@@H]1C(O)=C(C(N)=O)C(=O)[C@@]2(O)C(O)=C3C(=O)c4c(O)cccc4[C@@](C)(O)[C@H]3C[C@@H]12 [TETRACYCLINE]
Ratio (Staphylococcus aureus [35]): 933 | MIC (Staphylococcus aureus [36]): 168 µM | MIC (Staphylococcus aureus [37]): 168 µM | MIC (Staphylococcus aureus [18]): 168 µM (≈ 74.7 µg/mL) | MIC (Staphylococcus aureus [38]): 0.18 µM | MIC (Staphylococcus aureus [39]): 0.87 µM

[Cl-].[Cl-].[Zn+2] [ZINC CHLORIDE]
MIC (Staphylococcus aureus [18]): 1560 µM | MIC (Escherichia coli): 2000 µM | MIC (Staphylococcus aureus [23]): 1560 µM
